Data reported in patent publication US8299056B2 (Signal Pharmaceuticals, LLC, priority 2008, dated 2012).

Each compound was assayed against T1, Syk (Homo sapiens, UniProt P43405) (assay: Syk HTRF assay). Details: IC50 activity level, read-out: Activity Level.
T1 construct: purchased Carna Biosciences
Assay type: biochemical
Summary of the method: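 HTRF kinase assay in HEPES pH 7.6 buffer with MgCl2, DTT and Triton X100; start mix of 87.5 μM ATP and 80 nM biotinylated peptide, 1 h at room temperature. EDTA stop, then Eu-anti-phosphotyrosine/streptavidin-DyLight 647 detection, read as 665/615 nm emission ratio.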
`CN(C)Cc1nc2cc(-c3cccc4nc(Nc5ccccc5)nn34)ccc2[nH]1` [Example 486, 5-(2-((dimethylamino)methyl)-1H-benzo[d]imidazol-5-yl)-N-phenyl-[1,2,4]triazolo[1,5-a]pyridin-2-amine] was tested, and the IC50 was 0.005 to 250 nM. In the case of `c1ccc(Nc2nc3cccc(NC4CCCNC4)n3n2)cc1` (stereo in doubt) [Example 497, (R)-N^2-phenyl-N^5-(piperidin-3-yl)-[1,2,4]triazolo[1,5-a]pyridin-2,5-diamine], the IC50 is reported as 1000 to 10000 nM. `Nc1n[nH]c2cc(Nc3nc4cccc(N[C@H]5CCCNC5)n4n3)ccc12` [Example 451, (S)-N^2-(3-amino-1H-indazol-6-yl)-N^5-(piperidin-3-yl)-[1,2,4]triazolo[1,5-a]pyridine-2,5-diamine] was tested, and the IC50 was 0.005 to 250 nM. In the case of `c1ccc(Nc2nc3cccc(OC4CCCCC4)n3n2)cc1` [Example 510], the IC50 is reported as 1000 to 10000 nM. Compound `OC[C@H]1CC[C@H](Nc2cccc3nc(Nc4ccc(C(F)(F)F)cc4)nn23)CC1` (stereo in doubt) [Example 414, trans-(4-(2-(4-(trifluoromethyl)phenylamino)-[1,2,4]triazolo[1,5-a]pyridin-5-ylamino)cyclohexyl)methanol] has an IC50 of 500 to 1000 nM. Compound `Cc1cc(Nc2nc3cccc(NC4CCOCC4)n3n2)cnc1N1CCOCC1` [Example 547, N^2-(5-methyl-6-morpholinopyridin-3-yl)-N^5-(tetrahydro-2H-pyran-4-yl)-[1,2,4]triazolo[1,5-a]pyrridine-2,5-diamine] has an IC50 of 500 to 1000 nM. Compound `OC1CC[C@H](Nc2cccc3nc(Nc4ccc(C(F)(F)F)cc4)nn23)C1` (stereo in doubt) [Example 419, (1S,3S)-3-(2-(4-(trifluoromethyl)phenylamino)-[1,2,4]triazolo[1,5-a]pyridin-5-ylamino)cyclopentanol] has an IC50 of 250 to 500 nM. Work on `CC(C)Nc1cccc2nc(Nc3ccc4c(c3)NC(=O)C4(C)C)nn12` [Example 549, 6-(5-(isopropylamino)-[1,2,4]triazolo[1,5-a]pyridin-2-ylamino)-3,3-dimethylindolin-2-one] yielded an IC50 of 0.005 to 250 nM. Work on `O=C1NCc2c1cccc2-c1cccc2nc(Nc3ccccc3)nn12` [Example 499, 4-(2-(phenylamino)-[1,2,4]triazolo[1,5-a]pyridin-5-yl)-isoindolin-1-one] yielded an IC50 of 1000 to 10000 nM. `OC(Cc1cccc2nc(Nc3ccc(F)cc3)nn12)c1ccccc1` (stereo not drawn) [Example 431, 2-(2-(4-fluorophenylamino)-[1,2,4]triazolo[1,5-a]pyridin-5-yl)-1-phenylethanol] was tested, and the IC50 was 250 to 500 nM.

Same assay, conditions: activity levels A-D, read-out: Activity Level (IC50 in the Syk HTRF assay)
Compound `O=C1NCCCN1Cc1cccc2nc(Nc3ccc(C(F)(F)F)cc3)nn12` [Example 286, 1-((2-(4-(trifluoromethyl)phenylamino)-[1,2,4]triazolo[1,5-a]pyridin-5-yl)methyl)tetrahydropyrimidin-2(1H)-one] has an IC50 of 1000 to 10000 nM. Work on `O[C@H]1CCC[C@H](Nc2cccc3nc(Nc4ccc(C(F)(F)F)cc4)nn23)C1` (racemic) [Example 373, (±)trans-3-(2-(4-(trifluoromethyl)phenylamino)-[1,2,4]triazolo[1,5-a]pyridin-5-ylamino)cyclohexanol] yielded an IC50 of 500 to 1000 nM. With `CNC(=O)CNCc1cccc2nc(Nc3ccc(C(F)(F)F)cc3)nn12` [Example 213, N-methyl-2-((2-(4-(trifluoromethyl)phenylamino)-[1,2,4]triazolo[1,5-a]pyrridin-5-yl)methylamino)acetamide] the IC50 was 1000 to 10000 nM. Work on `O[C@H]1CC[C@H](CNc2cccc3nc(Nc4ccc(C(F)(F)F)cc4)nn23)CC1` [Example 375, trans-4-((2-(4-(trifluoromethyl)phenylamino)-[1,2,4]triazolo[1,5-a]pyridin-5-ylamino)methyl)cyclohexanol] yielded an IC50 of 1000 to 10000 nM. `Nc1n[nH]c2cc(Nc3nc4cccc(CC5CCC(O)CC5)n4n3)ccc12` (stereo not drawn) [Example 208, 4-((2-(3-amino-1H-indazol-6-ylamino)-[1,2,4]triazolo[1,5-a]pyridin-5-yl)methyl)cyclohexanol] showed an IC50 of 0.005 to 250 nM. With `CC(C)(O)c1nc2ccc(-c3cccc4nc(Nc5ccc(C(F)(F)F)cc5)nn34)cc2[nH]1` [Example 379, 2-(6-(2-(4-(trifluoromethyl)phenylamino)-[1,2,4]triazolo[1,5-a]pyridin-5-yl)-1H-benzo[d]imidazol-2-yl)propan-2-ol] the IC50 was 250 to 500 nM. In the case of `CNC(=O)c1ccc(Nc2nc3cccc(C[C@H]4CC[C@@H](O)C4)n3n2)cc1` (single isomer, unassigned; diastereomer 2) [Example 214, 4-(5-((3-hydroxycyclopentyl)methyl)-[1,2,4]triazolo[1,5-a]pyrridin-2-ylamino)-N-methylbenzamide (diastereomer 2)], the IC50 is reported as 1000 to 10000 nM. `OCC1CCN(Cc2cccc3nc(Nc4ccc(C(F)(F)F)cc4)nn23)CC1` [Example 274, (1-((2-(4-(trifluoromethyl)phenylamino)-[1,2,4]triazolo[1,5-a]pyridin-5-yl)methyl)piperidin-4-yl)methanol] showed an IC50 of 1000 to 10000 nM. `Cc1n[nH]c2cc(Nc3nc4cccc(CC5CCOCC5)n4n3)ccc12` [Example 199, N-(3-methyl-1H-indazol-6-yl)-5-((tetrahydro-2H-pyran-4-yl)methyl)-[1,2,4]triazolo[1,5-a]pyridin-2-amine] showed an IC50 of 0.005 to 250 nM. `CNC(=O)c1ccc(Nc2nc3cccc(NC4CCC(N)CC4)n3n2)cc1` (stereo in doubt) [Example 394, trans-4-(5-(4-aminocyclohexylamino)-[1,2,4]triazolo[1,5-a]pyridin-2-ylamino)-N-methylbenzamide] gave an IC50 of 250 to 500 nM. `NC(=O)c1cc(Nc2nc3cccc(N[C@H]4CC[C@@H](O)CC4)n3n2)ccn1` [Example 255, cis-4-(5-(4-hydroxycyclohexylamino)-[1,2,4]triazolo[1,5-a]pyridin-2-ylamino)picolinamide] was tested, and the IC50 was 1000 to 10000 nM. `O[C@@H]1CCN(c2cccc3nc(Nc4ccc(C(F)(F)F)cc4)nn23)C1` [Example 332, (R)-1-(2-(4-(trifluoromethyl)phenylamino)-[1,2,4]triazolo[1,5-a]pyridin-5-yl)pyrrolidin-3-ol] gave an IC50 of 500 to 1000 nM.

Same assay, conditions: read-out: Activity Level (Syk HTRF assay IC50)
For `Oc1cccc(-c2cccc3nc(Nc4ccc5cn[nH]c5c4)nn23)c1` [compound 27, 3-(2-(1H-indazol-6-ylamino)-[1,2,4]triazolo[1,5-a]pyridin-5-yl)phenol], the IC50 was 0.005 to 250 nM. With `CCn1nc(C)c2ccc(Nc3nc4cccc(N[C@H]5CC[C@@H](O)CC5)n4n3)cc21` [Example 197, cis-4-(2-(1-ethyl-3-methyl-1H-indazol-6-ylamino)-[1,2,4]triazolo[1,5-a]pyridin-5-ylamino)cyclohexanol] the IC50 was 0.005 to 250 nM. `CC1(C)C(=O)Nc2cc(Nc3nc4cccc(C(O)C5CCOCC5)n4n3)ccc21` (stereo not drawn) [Example 173, 6-(5-(hydroxy(tetrahydro-2H-pyran-4-yl)methyl)-[1,2,4]triazolo[1,5-a]pyridin-2-ylamino)-3,3-dimethylindolin-2-one] showed an IC50 of 250 to 500 nM. With `Cc1n[nH]c2cc(Nc3nc4cccc(NC5CCOC5)n4n3)ccc12` (stereo in doubt) [Example 167, (R)-N^2-(3-methyl-1H-indazol-6-yl)-N^5-(tetrahydrofuran-3-yl)-[1,2,4]triazolo[1,5-a]pyridin-2,5-diamine] the IC50 was 0.005 to 250 nM. With `CNC(=O)c1ccc(Nc2nc3cccc(-c4ccc(C(=O)O)cc4)n3n2)cc1` [compound 29, 4-(2-(4-(methylcarbamoyl)phenylamino)-[1,2,4]triazolo[1,5-a]pyridin-5-yl)benzoic acid] the IC50 was 1000 to 10000 nM.
